Where two headings read alike, the source gives them in different places.

Assay [1] concerns the target T1, catalytic domain of human Bub1 (amino acids 704-1085) (Homo sapiens, UniProt O43683).
T1 construct: catalytic domain of human Bub1 (amino acids 704-1085); His6 (N); made in house; host or cells: Hi5 insect cells
In words: Bub1 kinase assay (TR-FRET). The class given is biochemical. As to the method: To this end, 100-fold concentrated compound solutions (in DMSO) were previously prepared by serial dilution (1:3.4) of 2 mM stocks in a clear low volume 384-well source microtiter plate (Greiner Bio-One, Frickenhausen, Germany), from which 50 nl of compounds were transferred into a black low volume test microtiter plate from the same supplier. […] The resulting mixture (5 μL final volume) was incubated at […] during 60 min., and the reaction was stopped by the addition of 5 μL of an aqueous EDTA-solution (50 mM EDTA, in 100 mM HEPES pH 7.5 and 0.2% (w/v) bovine serum albumin) which also contained the TR-FRET detection reagents (0.2 μM streptavidin-XL665 [Cisbio Bioassays, Codolet, France] and 1 nM anti-phosho-Serine antibody [Merck Millipore, cat. #35-001] and 0.4 nM LANCE EU-W1024 labeled anti-mouse IgG antibody [Perkin-Elmer, product no. AD0077, alternatively a Terbium-cryptate-labeled anti-mouse IgG antibody from Cisbio Bioassays can be used]). The stopped reaction mixture was further incubated 1 h at 22° C. in order to allow the formation of complexes between peptides and detection reagents. Subsequently, the amount of product was evaluated by measurement of the resonance energy transfer from the Eu-chelate-antibody complex recognizing the Phosphoserine residue to the streptavidin-XL665 bound to the biotin moiety of the peptide. […] IC50 values were calculated by fitting the normalized inhibition data to a 4-parameter logistic equation (Minimum, Maximum, IC50, Hill; Y=Max+(Min−Max)/(1+(X/IC50)Hill)).
In general terms: TR-FRET usually uses a lanthanide donor and a delayed reading to cut background.

Assay [2] concerns HeLa cell line. In words: Proliferation assay (HeLa cell line). It is filed as cell-based. To be noted: Homo sapiens, 96 h, read-out: Biological Assay 2: Proliferation assay (HeLa cell line) median IC50. On the procedure:
(§1) Cultivated tumor cells (cells were ordered from ATCC, except HeLa-MaTu and HeLa-MaTu-ADR, which were ordered from EPO-GmbH, Berlin) were plated at a density of 1000 to 5000 cells/well, depending on the growth rate of the respective cell line, in a 96-well multititer plate in 200 μL of their respective growth medium supplemented 10% fetal calf serum. After 24 hours, the cells of one plate (zero-point plate) were stained with crystal violet (see below), while the medium of the other plates was replaced by fresh culture medium (200 μL), to which the test substances were added in various concentrations (0 μM, as well as in the range of 0.001-10 μM; the final concentration of the solvent dimethyl sulfoxide was 0.5%). The cells were incubated for 4 days in the presence of test substances. Cell proliferation was determined by staining the cells with crystal violet: the cells were fixed by adding 20 μl/measuring point of an 11% glutaric aldehyde solution for 15 minutes at room temperature. After three washing cycles of the fixed cells with water, the plates were dried at room temperature. The cells were stained by adding 100 μl/measuring point of a 0.1% crystal violet solution (pH 3.0). After three washing cycles of the stained cells with water, the plates were dried at room temperature. The dye was dissolved by adding 100 μl/measuring point of a 10% acetic acid solution. Absorption was determined by photometry at a wavelength of 595 nm. The change of cell number, in percent, was calculated by normalization of the measured values to the absorption values of the zero-point plate (=0%) and the absorption of the untreated (0 μm) cells (=100%). The IC50 values were determined by means of a 4 parameter fit using the company's own software.

Assay [3] has as its system HeLa-MaTu-ADR cell line. In words: Proliferation assay (HeLa-MaTu-ADR cell line). It is filed as cell-based. To be noted: 96 h, read-out: Biological Assay 2: Proliferation assay (HeLa-MaTu-ADR cell line) median IC50. As to the method: as §1
In assay [4] the test system is NCI-H460 cell line. In words: Proliferation assay (NCI-H460 cell line). The conditions noted are these: Homo sapiens, read-out: Biological Assay 2: Proliferation assay (NCI-H460 cell line) median IC50. It is filed as cell-based. As to the method: as §1
The test system of assay [5] is DU145 cell line. Nature of the assay: Proliferation assay (DU145 cell line). The class given is cell-based. The conditions noted are these: Homo sapiens, DU-145, 96 h, read-out: Biological Assay 2: Proliferation assay (DU145 cell line) median IC50. As to the method: as §1
Assay [6] concerns Caco2 cell line. Nature of the assay: Proliferation assay (Caco2 cell line). The class given is cell-based. To be noted: Homo sapiens, Caco-2, 96 h, read-out: Biological Assay 2: Proliferation assay (Caco2 cell line) median IC50. On the procedure:
as §1

Assay [7] has as its system B16F10 cell line. Nature of the assay: Proliferation assay (B16F10 cell line). The conditions noted are these: Mus musculus, B16-F10, 96 h, read-out: Biological Assay 2: Proliferation assay (B16F10 cell line) median IC50. The class given is cell-based. On the procedure:
as §1

[8] abbreviates: TR-FRET, 10 μM ATP, 1 μM peptide substrate, read-out: Biological Assay 1: Bub1 kinase assay median IC50.

T1 sequence (O43683 704-1085): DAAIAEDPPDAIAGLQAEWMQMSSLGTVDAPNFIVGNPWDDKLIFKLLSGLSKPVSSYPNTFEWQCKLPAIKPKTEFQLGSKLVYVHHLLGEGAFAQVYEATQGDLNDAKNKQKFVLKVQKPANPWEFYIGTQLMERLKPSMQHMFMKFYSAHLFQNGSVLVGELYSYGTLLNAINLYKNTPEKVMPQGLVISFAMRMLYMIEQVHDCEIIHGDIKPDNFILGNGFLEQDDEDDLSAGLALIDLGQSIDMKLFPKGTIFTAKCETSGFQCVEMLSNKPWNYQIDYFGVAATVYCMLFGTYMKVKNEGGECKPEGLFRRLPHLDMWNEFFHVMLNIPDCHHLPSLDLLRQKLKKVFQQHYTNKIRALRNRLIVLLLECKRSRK

As to `Fc1ccccc1Cn1nc(-c2nc(Nc3ccncc3)cc(Nc3ccncc3)n2)c2ccccc21` [Example 2-1-2, 2-[1-(2-fluorobenzyl)-1H-indazol-3-yl]-N,N′-di(pyridin-4-yl)pyrimidine-4,6-diamine], the IC50 in assay [1] was over 20000 nM; in assay [2] (cervical cancer, 4 days incubation, crystal violet staining), 490 nM; in assay [3] (HeLa-MaTu-ADR, cervical cancer, 4 days incubation, crystal violet staining) it was 1500 nM; in assay [4] (96 h, NCI-H460, non-small cell lung cancer, 4 days incubation, crystal violet staining) it was 470 nM; in assay [5] (DU145, prostate cancer, 4 days incubation, crystal violet staining), 360 nM; in assay [6] (Caco2, colon cancer, 4 days incubation, crystal violet staining), 1100 nM. In addition, the IC50 in assay [7] (B16F10, melanoma, 4 days incubation, crystal violet staining) amounted to 250 nM.
On to `CCOc1cc(F)c(Cn2nc(-c3nc(Nc4ccncc4)c(OC)c(Nc4ccncc4)n3)c3ccccc32)c(F)c1` [Example 2-4-2, 2-[1-(4-ethoxy-2,6-difluorobenzyl)-1H-indazol-3-yl]-5-methoxy-N,N′-di(pyridin-4-yl)pyrimidine-4,6-diamine], for which the IC50 amounted to 430 nM in assay [1] (setting [8]); 1500 nM in assay [2]; 1100 nM in assay [3]; 4300 nM in assay [4] (NCI-H460, 96 h); 3700 nM in assay [5]; 420 nM in assay [6]. The IC50 in assay [7] stood at 540 nM.
For the compound `CCOc1cc(F)c(Cn2nc(-c3nc(Nc4ccncc4)nc(Nc4ccncc4)n3)c3ccccc32)c(F)c1` [Example 2-4-5, 6-[1-(4-ethoxy-2,6-difluorobenzyl)-1H-indazol-3-yl]-N,N′-di(pyridin-4-yl)-1,3,5-triazine-2,4-diamine], the IC50 in assay [1] (setting [8]) was determined as 43 nM; in assay [2], 940 nM; in assay [3] it was 390 nM; in assay [4] (NCI-H460, 96 h), 750 nM; in assay [5] it was 1200 nM; in assay [6], 480 nM. Also, the IC50 in assay [7] came out at 780 nM.
With `CCOc1cc(F)c(Cn2nc(-c3nc(Nc4ccncc4)c(OCCO)c(Nc4ccncc4)n3)c3ccccc32)c(F)c1` [Example 2-5-2, 2-({2-[1-(4-ethoxy-2,6-difluorobenzyl)-1H-indazol-3-yl]-4,6-bis-(pyridin-4-ylamino)pyrimidin-5-yl}oxy)ethanol], the IC50 in assay [1] (setting [8]) amounted to 170 nM; in assay [2], 1200 nM; in assay [3] it was 280 nM; in assay [4] (NCI-H460, 96 h), 590 nM; in assay [5] it was 940 nM; in assay [6] it was 400 nM. The IC50 in assay [7] was determined as 520 nM.
